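These data come from cells grown in 96-well plates and exposed to compound for 48 hours at five concentrations. At the GI50, growth is halved. Definition used: TGI = concentration required for complete inhibition of growth.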
Columns and labels:
Test in all cases: NCI-60 cell line screen, 48 h
NCI-H460 lung = system: NCI-H460 lung
MDA-MB-231 breast = system: MDA-MB-231 breast
NCI/ADR-RES ovarian = system: NCI/ADR-RES ovarian
MALME-3M melanoma = system: MALME-3M melanoma
NCI-H522 lung = system: NCI-H522 lung
CCRF-CEM leukemia = system: CCRF-CEM leukemia
HCT-15 colon = system: HCT-15 colon
HCC-2998 colon = system: HCC-2998 colon
OVCAR-3 ovarian = system: OVCAR-3 ovarian
SW-620 colon = system: SW-620 colon

| SMILES | GI50 (NCI-H460 lung) | TGI (NCI-H460 lung) | GI50 (MDA-MB-231 breast) | TGI (MDA-MB-231 breast) | GI50 (NCI/ADR-RES ovarian) | TGI (NCI/ADR-RES ovarian) | GI50 (MALME-3M melanoma) | TGI (MALME-3M melanoma) | GI50 (NCI-H522 lung) | TGI (NCI-H522 lung) | GI50 (CCRF-CEM leukemia) | TGI (CCRF-CEM leukemia) | GI50 (HCT-15 colon) | TGI (HCT-15 colon) | GI50 (HCC-2998 colon) | TGI (HCC-2998 colon) | GI50 (OVCAR-3 ovarian) | TGI (OVCAR-3 ovarian) | GI50 (SW-620 colon) | TGI (SW-620 colon) |
| --- | --- | --- | --- | --- | --- | --- | --- | --- | --- | --- | --- | --- | --- | --- | --- | --- | --- | --- | --- | --- |
| ClCCN(CCCl)c1ccc(-n2cnc3c(Cl)ncnc32)cc1 | 2.14 µM | 4.88 µM | 3.28 µM | 11.1 µM | 4.15 µM | 20.3 µM | 2.17 µM | 4.41 µM | 3.84 µM | 14.9 µM | 3.05 µM | > 100 µM | 1.79 µM | 3.65 µM | 1.84 µM | 3.41 µM | 1.77 µM | 3.15 µM | 1.76 µM | 3.29 µM |
| C(=C1c2ccccc2-c2ccccc21)c1ccccn1 | 5.87 µM | 23 µM | 12.3 µM | 39.8 µM | 3.86 µM | 31 µM | 3.61 µM | 27 µM | 11.1 µM | 51.1 µM | 7.8 µM | 46 µM | 6.21 µM | 49.3 µM | 13 µM | 46.3 µM | 3.66 µM | 15.9 µM | 4.03 µM | 49.4 µM |
| CCC[C@H](N[C@@H]1CCc2cc(F)cc(F)c2C1)C(=O)Nc1cn(C(C)(C)CNCC(C)(C)C)cn1 | 19.5 µM | 53.8 µM | 10.2 µM | 29.3 µM | 15.3 µM | > 81 µM | 13.4 µM | 28.2 µM | 15.7 µM | 56.1 µM | 14.7 µM | > 63.6 µM | 15.7 µM | 75.2 µM | 17.8 µM | > 81.1 µM | 15.3 µM | 42.9 µM | 25 µM | > 100 µM |
| COc1cccc(/C=N\Nc2ccc([N+](=O)[O-])cn2)c1O | 2.05 µM | 11 µM | 3.95 µM | 96.2 µM | 2.43 µM | 28 µM | 4.11 µM | 36 µM | 3.34 µM | 18.4 µM | 3.42 µM | 38.2 µM | – | 39.7 µM | 8.01 µM | > 100 µM | 2.38 µM | 12 µM | 3.94 µM | > 100 µM |
| CC(C)(C)c1ccc([I+]c2ccc(C(C)(C)C)cc2)cc1 | 1.66 µM | 4.16 µM | 1.35 µM | 2.83 µM | 21.5 µM | 89.5 µM | 0.545 µM | 2.01 µM | 1.39 µM | 4.8 µM | 1.17 µM | 9.14 µM | 5.08 µM | 18.2 µM | 1.78 µM | 9.09 µM | 1.44 µM | 6.87 µM | 1.56 µM | 10.7 µM |
| Cn1c(=O)cc2c3c(c(NCCCO)ccc31)C(=O)c1ccccc1-2 | 2.31 µM | > 100 µM | 4.77 µM | > 100 µM | 5.2 µM | > 100 µM | 2.12 µM | 7.35 µM | 2.5 µM | > 100 µM | 3.29 µM | > 100 µM | 3.86 µM | > 100 µM | 5.23 µM | > 100 µM | 5.69 µM | > 100 µM | 0.875 µM | > 100 µM |
| N#Cc1ccccc1C#C/C=C\C#Cc1ccc(OCCCNC(=O)c2cc3ccccc3[nH]2)cc1 | 33.9 µM | > 100 µM | 13.3 µM | 28.1 µM | 23.5 µM | > 100 µM | 14 µM | 34.8 µM | 13.9 µM | 32.3 µM | 4.6 µM | 44.3 µM | 26.2 µM | > 100 µM | 74.9 µM | > 100 µM | 18.2 µM | 41.4 µM | 30.2 µM | > 100 µM |
| COCCOC(=O)C1=C(C)NC2=C(C(=O)CC(c3ccccc3OC)C2)C1c1cccc(O)c1 (stereo not drawn) | 15.5 µM | 42.9 µM | 13 µM | > 72.8 µM | 35.9 µM | > 100 µM | 13.9 µM | 47.6 µM | 6.47 µM | 33.6 µM | 11.3 µM | 83.6 µM | 19.8 µM | > 61.9 µM | 12.2 µM | 27 µM | 9.13 µM | 23.9 µM | 12.5 µM | 33.5 µM |
| CN1C(=O)CNC(=O)[C@H](NC(=O)c2nc3ccccc3cc2O)CSSC[C@H]1C(=O)NCCc1nc2ccccc2cc1O | 1.15 µM | > 35.2 µM | 5.42 µM | 27.7 µM | > 88.5 µM | > 100 µM | 15.8 µM | 44.1 µM | 2.38 µM | 7.46 µM | 3.25 µM | > 52.7 µM | 20.7 µM | > 62.5 µM | 15.7 µM | > 75.9 µM | 4.61 µM | 18.2 µM | 5.65 µM | 35.3 µM |
| O=C1/C(=C/c2ccccc2Cl)N=C(c2ccccc2)N1Cc1ccco1 | 42.6 µM | > 100 µM | 19.7 µM | > 100 µM | > 100 µM | > 100 µM | 16.6 µM | 36 µM | 26.2 µM | 66.7 µM | 5.35 µM | > 100 µM | 25.5 µM | > 100 µM | 43.2 µM | > 100 µM | 26.9 µM | > 100 µM | 89.6 µM | > 100 µM |
| CCN(CC)c1ccc2c(c1)Oc1nc(N)c(C#N)c(N)c1C2Sc1ccc(SC)cc1 (stereo not drawn) | 1.8 µM | 3.69 µM | 1.54 µM | 3.07 µM | 2.39 µM | 6.13 µM | 2.38 µM | 4.72 µM | 2.42 µM | 4.31 µM | 1.27 µM | 5.02 µM | 1.59 µM | 3.07 µM | 1.96 µM | 3.47 µM | 1.73 µM | 3.17 µM | 1.88 µM | 3.68 µM |
| CC(=O)OC1COC(S[As](C)C)C(OC(C)=O)C1OC(C)=O (stereo not drawn) | 1.05 µM | 14.5 µM | 0.512 µM | 2.86 µM | 0.155 µM | 0.974 µM | 0.0159 µM | 0.287 µM | 0.0321 µM | 0.139 µM | 0.0444 µM | 0.152 µM | 0.191 µM | 1.36 µM | 0.333 µM | 0.922 µM | < 0.0138 µM | 0.0404 µM | 0.341 µM | 1.69 µM |
| CCCCCCCCCCCCCCCC(=O)OCC(O)C1OC(=O)C(O)=C1O (stereo not drawn) | – | > 100 µM | – | 54.2 µM | – | 79.8 µM | – | > 100 µM | – | > 100 µM | – | 47.5 µM | – | > 100 µM | – | > 100 µM | – | > 100 µM | – | > 100 µM |
| O=C1c2ccccc2C(=O)N1c1ccc(S(=O)(=O)Nc2ncccn2)cc1 | > 100 µM | > 100 µM | > 100 µM | > 100 µM | > 100 µM | > 100 µM | > 100 µM | > 100 µM | > 100 µM | > 100 µM | 9.79 µM | > 100 µM | > 100 µM | > 100 µM | 22.7 µM | > 100 µM | > 100 µM | > 100 µM | > 100 µM | > 100 µM |
| CCc1c2c(nc3cc4c(cc13)OCO4)-c1cc3c(c(=O)n1C2)COC(=O)[C@@]3(CC)OC(=O)CN | < 0.01 µM | < 0.01 µM | 0.195 µM | 15 µM | < 0.01 µM | < 0.0104 µM | < 0.015 µM | 1.43 µM | < 0.01 µM | 0.239 µM | < 0.01 µM | < 0.01 µM | 0.0236 µM | > 100 µM | < 0.0112 µM | 0.194 µM | < 0.01 µM | 0.315 µM | < 0.013 µM | – |

Source: PubChem BioAssay (NCI)
